What was measured:
Th2 cells = test: cytokine mRNA levels in Th2 cells after ionomycin pretreatment; type: cell-based
Protocol: Total cellular RNA was purified from resting cells or cells stimulated with APC and antigen or anti-CD3 plus anti-CD28 for 4 h, using Ultraspec reagent (Biotecx) and analyzed using the RiboQuant multiprobe RNase protection kit and specific multi-set probes (Pharmingen) according to the manufacturer's instructions. Jurkat cells were transfected by electroporation in serum-free medium with pulses of 250 V and 960 μF with […] of pEGFPN1 (Clontech) or pNLS-NFAT1 (ST2+5+8) (Okamura et al., (2000) Mol. Cell. 6: 539-550). RNA from transiently transfected Jurkat cells was obtained after selecting transfected cells for expression of a cotransfected murine CD4 plasmid using magnetic beads (Dynal).
Thus the net effect of a tolerising stimulus on T cells is to skew the cytokine response towards production of the immunosuppressive cytokine […], while down-regulating production of multiple other cytokines and chemokines associated with a productive immune response.

D5 T cells = test: proliferation assay (3H-thymidine) of D5 T cells after ionomycin pretreatment; type: cell-based, murine
Protocol: D5 or primary T cells were stimulated with APC and antigen and pulsed for 24 hours with 10 μCi/ml ^3H-thymidine. DNA was collected using a cell harvester and the amount of radioactivity incorporated was measured in a β-counter.
The murine antigen-specific Th1 clone D5 was used to set up the model of clonal anergy developed by Schwartz and coworkers (Schwartz, (1996) J. Exp. Med. 184: 1-8).

D5 and Th1 cells = test: gene transcription profiles of ionomycin-induced genes (FIGS. 6B, 7B), Affymetrix arrays and real-time RT-PCR; type: cell-based, murine
Protocol: D5 or primary T cells from NFAT1−/− or wild type DO11.10 transgenic mice were stimulated for 2, 6 or 16 hours with 500 nM ionomycin, 20 nM PMA plus 500 nM ionomycin, or 1 μM CsA plus 500 nM ionomycin. Total RNA was isolated with an RNeasy kit (QIAGEN). Ten μg of total RNA was quantitatively amplified and biotin-labeled as described (Byrne et al., (2000) “Preparation of mRNA for Expression Monitoring” Current Protocols in Molecular Biology (John Wiley & Sons, Inc.) pp. 22.22.21-22.22.13). Hybridization to GeneChips® (Affymetrix) displaying probes for 11,000 mouse genes/ESTs was performed at 40° C. overnight in a mix that included 10 μg fragmented RNA, 6× SSPE, 0.005% Triton X-100 and 100 μg/ml herring sperm DNA in a total volume of 200 μl. Chips were washed, stained with SA-PE and read using an Affymetrix GeneChip® scanner and accompanying gene expression software. […]
Total RNA was prepared from resting or stimulated T cells using Ultraspec reagent (Biotecx). cDNA was synthesized using oligo-dT primers and Superscript polymerase (Invitrogen) following the manufacturer's recommendations. Quantitative real-time PCR was performed in an I-Cycler (BioRad) using a SYBR Green PCR kit from Applied Biosystems and specific primers to amplify 100-200 bp fragments from the different genes analyzed. A threshold was set in the linear part of the amplification curve (fluorescence=f[cycle number]) and the number of cycles needed to reach it calculated for every gene. […]
Among them were many ESTs with no assigned function; a single cytokine gene, M-CSF; genes in other functional categories as shown in FIG. 6B; but no other genes normally associated with a productive immune response. […] To validate the array data, expression of 15 of the 18 genes were evaluated by quantitative real-time RT-PCR, and in every case ionomycin-mediated induction was confirmed (see numbers within panels of FIG. 6B). […]

[1] = test system: NFAT, AP-1 and NFκB DNA-binding activity; test: electrophoretic mobility shift assay of nuclear extracts of stimulated Th1 cells; type: cell-based
Protocol: Nuclear extracts were prepared from Th1 cells, unstimulated or stimulated for 60 minutes with 500 nM ionomycin or 20 nM PMA plus 500 nM ionomycin. Binding reactions were performed as previously described (Macian et al., (2000) EMBO J. 19: […]) using NFAT, AP-1 and NF-KB specific probes (Goldfeld et al., (1993) J. Exp. Med. 178: 1365-1379).

## C[C@H](CCC(=O)O)C[C@H](C)C[C@H](C)C(=O)/C=C(\O)[C@H](C)C[C@H](C)C/C=C/[C@@H](C)[C@@H](O)[C@@H](C)[C@@H](O)C[C@@H]1CC[C@@](C)([C@H]2CC[C@@](C)([C@@H](C)O)O2)O1 [Ionomycin, ionomycin]
Th2 cells
  IL-10 transcript levels: not affected
  reduction in mRNA levels of IL-4, IL-5 and IL-13: approximately 70%
D5 T cells
  subsequent proliferative response to antigen or anti-CD3: greatly diminished
D5 and Th1 cells; compared to PMA/ionomycin
  induction of Grg4, Ikaros, PTP-1B and GBP-3: more strongly induced
D5 and Th1 cells; early times
  induction of Rab-10: markedly induced
D5 and Th1 cells; ionomycin versus PMA/ionomycin
  induction of jumonji, CD98 and FasL: similarly induced
[1]
  AP-1 or NFκB DNA-binding activity: no increase
  NFAT DNA-binding activity: increased

— patent US20030064380A1, “Anergy-regulated molecules” (The Center For Blood Research, Inc., priority 2001, published 2003)
